According to patent publication US7842825B2, “Biaryloxymethylarenecarboxylic acids as glycogen synthase activator” (Hoffmann-La Roche Inc., priority 2003, dated 2010):

System: glycogen synthase
Test: Glycogen Synthase (GS) Assay, in vitro activation of glycogen synthase
Format: biochemical
Details: compound concentration needed to stimulate 200% of the enzyme activity; coupled pyruvate kinase/lactate dehydrogenase assay, absorbance at 340 nm, 37° C
Description: Twelve μl per well of substrate solution containing glycogen (4.32 mg/ml), 21.6 mM UDP-glucose, 21.6 mM phospho(enol)pyruvate and 2.7 mM NADH in 30 mM glycylglycine, pH 7.3 buffer is added into a polystyrene 384-well assay plate (BD Biosciences). Compound solution (8 μl/well) at various concentrations (0-57 μM) in 30 mM glycylglycine, pH 7.3, 40 mM KCl, 20 mM MgCl2 plus 9.2% DMSO are added to the assay plate (columns 5-24). Enzyme solution (12 μl/well) containing glycogen synthase (16.88 μg/ml), pyruvate kinase (0.27 mg/ml), lactate dehydrogenase (0.27 mg/ml) in 50 mM Tris-HCl, pH 8.0, 27 mM DTT and bovine serum albumin (BSA, 0.2 mg/ml) is added to the assay plate (columns 3-24). As a blank control, enzyme solution without glycogen synthase is added into the top half wells of columns 1-2. To the bottom half wells of columns 1-2 are added a known activator, glucose 6-phosphate (18.9 mM) in addition to the enzyme solution. The reaction mixture is incubated at 37° C. The assay plate is then read for absorbance at 340 nm on a Tecan Ultra reader every 3 minutes up to a total of 30 minutes.
(§1) The enzyme activity (with or without compound) is calculated by the reaction rate and represented by the optical density change (ΔOD) per minute. Percent stimulation of glycogen synthase activity by a compound at various concentrations is calculated by the following formula: % stimulation=100*Rs/Rt,
where Rs is the reaction rate of the enzyme in the presence of compound and Rt is the reaction rate of the enzyme in the absence of compound.
SC2.0 is defined as the compound concentration that is needed to stimulate 200% of the enzyme activity.
Glycogen Synthase (GS) Assay
The following tests were carried out in order to determine the activity of the compounds of formula (I).
Twelve μl per well of substrate solution containing glycogen (4.32 mg/ml), 21.6 mM UDP-glucose, 21.6 mM phospho(enol)pyruvate and 2.7 mM NADH in 30 mM glycylglycine, pH 7.3 buffer was added into a polystyrene 384-well assay plate (BD Biosciences). Compound solution (8 μl/well) at various concentrations (0-57 μM) in 30 mM glycylglycine, pH 7.3, 40 mM KCl, 20 mM MgCl2 plus 9.2% DMSO were added to the assay plate (columns 5-24). Enzyme solution (12 μl/well) containing glycogen synthase (16.88 μg/ml), pyruvate kinase (0.27 mg/ml), lactate dehydrogenase (0.27 mg/ml) in 50 mM Tris-HCl, pH 8.0, 27 mM DTT and bovine serum albumin (BSA, 0.2 mg/ml) was added to the assay plate (columns 3-24). As a blank control, enzyme solution without glycogen synthase was added into the top half wells of columns 1-2. To the bottom half wells of columns 1-2 were added a known activator, glucose 6-phosphate (18.9 mM) in addition to the enzyme solution. The reaction mixture was incubated at 37° C. The assay plate was then read for absorbance at 340 nm on a Tecan Ultra reader every 3 minutes up to a total of 30 minutes.
as §1, with “was” for “is”, “stimulation=100*Rs/Rt, […]” for “stimulation=100*Rs/Rt,”

SMILES | SC2.0 [µM]
O=C(O)[C@H]1CCCN1C(=O)c1ccc(COc2ccc(-c3ccccc3)cc2)o1 [1-[5-(Biphenyl-4-yloxymethyl)-furan-2-carbonyl]-L-pyrrolidine-2-carboxylic acid] | 1.4
O=C(O)c1ccc(COc2ccc(-c3ccccc3)cc2)s1 [5-(Biphenyl-4-yloxymethyl)-thiophene-2-carboxylic acid] | 12.7
O=C(O)c1cccc(COc2ccc(-c3ccc(Br)cc3)cc2)c1 [Example 4, 3-(4′-Bromo-biphenyl-4-yloxymethyl)-benzoic acid] | 3.8
COc1ccc(-c2ccc(OCc3cccc(C(=O)O)c3)cc2)cc1 [Example 7, 3-(4′-Methoxy-biphenyl-4-yloxymethyl)-benzoic acid] | 9.6
O=C(O)c1ccc(COc2cccc(-c3ccccc3)c2)o1 [Example 9, 5-(Biphenyl-3-yloxymethyl)-furan-2-carboxylic acid] | 14.9
O=C(O)c1ccc(COc2ccc(-c3ccc(Cl)cc3)cc2)o1 [Example 12, 5-(4′-Chloro-biphenyl-4-yloxymethyl)-furan-2-carboxylic acid] | 0.8
O=C(O)c1ccccc1COc1ccc(-c2ccccc2)cc1Cl [Example 15, 2-(3-Chloro-biphenyl-4-yloxymethyl)-benzoic acid] | 10.3
O=C(O)c1csc(COc2ccc(-c3ccccc3)cc2Cl)n1 [Example 22, 2-(3-Chloro-biphenyl-4-yloxymethyl)-thiazole-4-carboxylic acid] | 14.9
O=C(O)c1csc(COc2ccc(-c3ccc(Cl)cc3)cc2)n1 [Example 26, 2-(4′-Chloro-biphenyl-4-yloxymethyl)-thiazole-4-carboxylic acid] | 3.1
O=C(NC1(C(=O)O)CCCC1)c1ccc(COc2ccc(-c3ccccc3)cc2)o1 [Example 34, 1-{[5-(Biphenyl-4-yloxymethyl)-furan-2-carbonyl]-amino}-cyclopentane carboxylic acid] | 16.3
